Legend:
[1] = tested on: Gaeumannomyces graminis; assay: Gaeumannomyces graminis/Liquid Culture (Take-all of Cereals); type: cell-based; details: 200 ppm, liquid culture, compared to untreated control, 4-5 days after application, read-out: control of Gaeumannomyces graminis
[2] = tested on: Glomerella lagenarium (Colletotrichum lagenarium); assay: Glomerella lagenarium (Colletotrichum lagenarium)/Liquid Culture (Anthracnose); type: cell-based; details: Colletotrichum orbiculare; 200 ppm; liquid culture, compared to untreated control, 3-4 days after application; read-out: control of Glomerella lagenarium
[3] = tested on: Fusarium culmorum; assay: microbe, parasite or virus in culture; type: cell-based; details: read-out: control of Fusarium culmorum
[4] = tested on: Botryotinia fuckeliana (Botrytis cinerea); assay: Botryotinia fuckeliana (Botrytis cinerea)/Liquid Culture (Gray Mould); type: cell-based; details: 200 ppm, liquid culture, compared to untreated control, 3-4 days after application, read-out: control of Botryotinia fuckeliana
[5] = tested on: Monographella nivalis (Microdochium nivale); assay: Monographella nivalis (Microdochium nivale)/Liquid Culture (Foot Rot Cereals); type: cell-based; details: 200 ppm, liquid culture, compared to untreated control, 4-5 days after application, read-out: control of Monographella nivalis
[6] = tested on: Fusarium culmorum; assay: whole plant or invertebrate; type: in vivo; details: in Triticum aestivum, read-out: control of Fusarium culmorum
[7] = tested on: Magnaporthe grisea (Pyricularia oryzae); assay: microbe, parasite or virus in culture; type: cell-based; details: read-out: control of Magnaporthe grisea
[8] = tested on: Sclerotinia sclerotiorum; assay: Sclerotinia sclerotiorum/Liquid Culture (Cottony Rot); details: read-out: control of Sclerotinia sclerotiorum
Experimental: Mycelia fragments of a newly grown liquid culture of the fungus are directly mixed into nutrient broth (Vogels broth). After placing a (DMSO) solution of test compound into a microtiter plate (96-well format) the nutrient broth containing the fungal material is added. The test plates are incubated at 24° C. and the inhibition of growth is determined photometrically 3-4 days after application.

[9] = tested on: Magnaporthe grisea (Pyricularia oryzae); assay: whole plant or invertebrate; type: in vivo; details: foliar, read-out: control of Magnaporthe grisea

| Compound | inhibition of growth at 200 ppm [1] [%] | inhibition of growth at 200 ppm [2] [%] | inhibition of growth at 200 ppm [3] [%] | inhibition of growth at 200 ppm [4] [%] | inhibition of growth at 200 ppm [5] [%] | pest or weed control at 200 ppm [6] [%] | melting point [°C] | inhibition of growth at 200 ppm [7] [%] | inhibition of growth at 20 ppm [8] [%] | pest or weed control at 200 ppm [9] [%] |
| --- | --- | --- | --- | --- | --- | --- | --- | --- | --- | --- |
| CC(C)(Cc1ccccc1)C(=O)Nc1cnc2c(F)cccc2c1 [Compound E-69, N-(8-fluoro-3-quinolyl)-2,2-dimethyl-3-phenyl-propanamide] | ≥ 80 | ≥ 80 | ≥ 80 | ≥ 80 | ≥ 80 | ≥ 80 | – | – | – | – |
| CC(C)C[C@@](C)(Cc1ccccc1)C(=O)Nc1cnc2c(F)cccc2c1 [Compound F-20, (2S)-2-benzyl-N-(8-fluoro-3-quinolyl)-2,4-dimethyl-pentanamide] | ≥ 80 | ≥ 80 | ≥ 80 | ≥ 80 | ≥ 80 | ≥ 80 | – | – | – | – |
| C=C(Cl)CC(C)(Cc1ccccc1)C(=O)Nc1cc2cccc(F)c2nc1C (centres unmarked) [Compound E-21, 2-benzyl-4-chloro-N-(8-fluoro-2-methyl-3-quinolyl)-2-methyl-pent-4-enamide] | – | ≥ 80 | ≥ 80 | ≥ 80 | – | ≥ 80 | 121 to 123 | ≥ 80 | ≥ 80 | ≥ 80 |
| Cc1nc2c(Cl)cccc2cc1NC(=O)C(C)(Cc1ccccc1)CC(F)(F)F (centres unmarked) [Compound E-17, 2-benzyl-N-(8-chloro-2-methyl-3-quinolyl)-4,4,4-trifluoro-2-methyl-butanamide] | – | ≥ 80 | ≥ 80 | ≥ 80 | ≥ 80 | – | 47 to 50 | ≥ 80 | ≥ 80 | ≥ 80 |
| Cc1nc2c(F)cccc2cc1NC(=O)[C@@](C)(Cc1ccccc1)CC(F)(F)F [Compound F-12, (2S)-2-benzyl-4,4,4-trifluoro-N-(8-fluoro-2-methyl-3-quinolyl)-2-methyl-butanamide] | – | ≥ 80 | ≥ 80 | ≥ 80 | ≥ 80 | ≥ 80 | 135 to 136 | ≥ 80 | ≥ 80 | ≥ 80 |
| C=C(Cl)CC(C)(Cc1ccccc1)C(=O)Nc1cnc2c(F)cccc2c1C (centres unmarked) [Compound E-20, 2-benzyl-4-chloro-N-(8-fluoro-4-methyl-3-quinolyl)-2-methyl-pent-4-enamide] | – | ≥ 80 | ≥ 80 | ≥ 80 | ≥ 80 | ≥ 80 | 124 to 126 | ≥ 80 | ≥ 80 | ≥ 80 |
| Cc1c(NC(=O)C(Cc2ccccc2)CC(F)(F)F)cnc2c(F)cccc12 (centres unmarked) [Compound E-45, 2-benzyl-4,4,4-trifluoro-N-(8-fluoro-4-methyl-3-quinolyl)butanamide] | – | ≥ 80 | ≥ 80 | ≥ 80 | – | ≥ 80 | 165 to 167 | ≥ 80 | ≥ 80 | ≥ 80 |
| C=C(C)C[C@@](C)(Cc1ccccc1)C(=O)Nc1cc2cccc(F)c2nc1C [Compound F-1, (2S)-2-benzyl-N-(8-fluoro-2-methyl-3-quinolyl)-2,4-dimethyl-pent-4-enamide] | – | ≥ 80 | ≥ 80 | ≥ 80 | – | ≥ 80 | – | ≥ 80 | ≥ 80 | ≥ 80 |
| CC(Cc1ccccc1)(CC1CC1(F)F)C(=O)Nc1cnc2c(F)cccc2c1 (centres unmarked) [Compound E-72, 2-benzyl-3-(2,2-difluorocyclopropyl)-N-(8-fluoro-3-quinolyl)-2-methyl-propanamide] | ≥ 80 | ≥ 80 | ≥ 80 | ≥ 80 | ≥ 80 | – | – | ≥ 80 | – | – |
| Cc1nc2c(F)cccc2cc1NC(=O)[C@](C)(Cc1ccccc1)CC(F)(F)F [Compound F-11, (2R)-2-benzyl-4,4,4-trifluoro-N-(8-fluoro-2-methyl-3-quinolyl)-2-methyl-butanamide] | – | ≥ 80 | ≥ 80 | ≥ 80 | – | ≥ 80 | 137 to 139 | ≥ 80 | ≥ 80 | ≥ 80 |
| Cc1nc2c(F)cccc2cc1NC(=O)C(C)(Cc1cccc(F)c1)CC(F)(F)F (centres unmarked) [Compound E-8, 4,4,4-trifluoro-N-(8-fluoro-2-methyl-3-quinolyl)-2-[(3-fluorophenyl)methyl]-2-methyl-butanamide] | – | ≥ 80 | ≥ 80 | ≥ 80 | – | ≥ 80 | – | ≥ 80 | ≥ 80 | ≥ 80 |
| C=C(C)C[C@](C)(Cc1ccccc1)C(=O)Nc1cnc2c(F)cccc2c1C [Compound F-6, (2R)-2-benzyl-N-(8-fluoro-4-methyl-3-quinolyl)-2,4-dimethyl-pent-4-enamide] | – | ≥ 80 | ≥ 80 | ≥ 80 | ≥ 80 | ≥ 80 | – | ≥ 80 | ≥ 80 | ≥ 80 |
| Cc1nc2c(Cl)cccc2cc1NC(=O)C(C)(Cc1ccccc1)CC(C)C (centres unmarked) [Compound E-13, 2-benzyl-N-(8-chloro-2-methyl-3-quinolyl)-2,4-dimethyl-pentanamide] | – | ≥ 80 | ≥ 80 | ≥ 80 | ≥ 80 | – | 99 to 100 | ≥ 80 | ≥ 80 | ≥ 80 |
| Cc1c(NC(=O)C(C)(Cc2ccccc2)CC(F)(F)F)cnc2c(F)cccc12 (centres unmarked) [Compound E-50, 2-benzyl-4,4,4-trifluoro-N-(8-fluoro-4-methyl-3-quinolyl)-2-methyl-butanamide] | – | ≥ 80 | ≥ 80 | ≥ 80 | ≥ 80 | ≥ 80 | 106 to 109 | ≥ 80 | ≥ 80 | ≥ 80 |
| Cc1c(NC(=O)C(Cc2ccccc2)CC(C)C)cnc2c(F)cccc12 (centres unmarked) [Compound E-19, 2-benzyl-N-(8-fluoro-4-methyl-3-quinolyl)-4-methyl-pentanamide] | – | ≥ 80 | ≥ 80 | ≥ 80 | – | ≥ 80 | – | ≥ 80 | ≥ 80 | ≥ 80 |
| C=C(C)C[C@](C)(Cc1ccccc1)C(=O)Nc1cc2cccc(F)c2nc1C [Compound F-2, (2R)-2-benzyl-N-(8-fluoro-2-methyl-3-quinolyl)-2,4-dimethyl-pent-4-enamide] | – | ≥ 80 | ≥ 80 | ≥ 80 | – | ≥ 80 | – | ≥ 80 | ≥ 80 | ≥ 80 |
| CC(Cc1ccccc1)(CC(F)(F)F)C(=O)Nc1cnc2c(F)cccc2c1 (centres unmarked) [Compound E-80, 2-benzyl-4,4,4-trifluoro-N-(8-fluoro-3-quinolyl)-2-methyl-butanamide] | – | ≥ 80 | ≥ 80 | ≥ 80 | ≥ 80 | ≥ 80 | – | ≥ 80 | ≥ 80 | ≥ 80 |
| CC(Cc1ccccc1)(CC1CC1(Cl)Cl)C(=O)Nc1cnc2c(F)cccc2c1 (centres unmarked) [Compound E-75, 2-benzyl-3-(2,2-dichlorocyclopropyl)-N-(8-fluoro-3-quinolyl)-2-methyl-propanamide] | ≥ 80 | ≥ 80 | ≥ 80 | ≥ 80 | – | – | – | ≥ 80 | – | – |
| CC1(C[C@](C)(Cc2ccccc2)C(=O)Nc2cnc3c(F)cccc3c2)CC1 [Compound F-9, (2R)-2-benzyl-N-(8-fluoro-3-quinolyl)-2-methyl-3-(1-methylcyclopropyl) propanamide] | – | ≥ 80 | ≥ 80 | ≥ 80 | ≥ 80 | ≥ 80 | 62 to 64 | ≥ 80 | ≥ 80 | ≥ 80 |

Reference: US10952436B2, “Microbiocidal quinoline (thio)carboxamide derivatives” (SYNGENTA PARTICIPATIONS AG, priority 2017, dated 2021)
